Measured values as given in patent US5698551A, “Heterocyclic compounds” (Novo Nordisk A/S, priority 1995, dated 1997).

Test system: NMRI female mice
Experiment: Inhibition of formalin induced pain response in mice
Type: in vivo
Conditions: at 0.1 mg/kg, 1% formalin into left hind paw
Procedure: Formalin induced pain or paw oedema
Values for in vivo inhibition of formalin induced pain or oedema for the compounds of the present invention were assessed in mice essentially by the method of Wheeler-Aceto and Cowan (Agents Action 1991, 34, 265-269).
About 20 g NMRI female mice were injected […] 1% formalin into the left hind paw. The animals were then placed on a heated (31° C.) table, and the pain response was scored. After 1 h they were killed and bled. Left and right hind paws were removed and the weight difference between the paws was used as indication of the oedema response of the formalin injected paw.
Values for inhibition of formalin induced pain response for some representative compounds are recorded in table 1.

Row | Structure (SMILES) | % Pain inhibition (inhibition of formalin induced pain response)
1 | Cl.O=C(O)[C@@H]1CCCN(CCCn2c(=O)c3ccccc3c(=O)c3ccccc32)C1 [Example 4, (R)-1-(3-(6,11-Dioxo-6,11-dihydro-5H-dibenz[b,e]azepin-5-yl)-1-propyl)-3-piperidine-carboxylic acid hydrochloride] | 28%
2 | Cl.O=C(O)[C@@H]1CCCN(CCCN2C(=O)c3ccccc3CCc3ccccc32)C1 [Example 2, (R)-1-(3-(6-Oxo-11,12-dihydro-5H-dibenz[b,f]azocin-5-yl)-1-propyl)-3-piperidinecarboxylic acid hydrochloride] | 34%
3 | Cl.Cl.O=C(O)[C@@H]1CCCN(CCCN2Cc3ccccc3CCc3ccccc32)C1 [Example 6, (R)-1-(3-(5,6,11,12-Tetrahydro-dibenz[b,f]azocin-5-yl)-1-propyl)-3-piperidinecarboxylic acid dihydrochloride] | 22%
4 | Cl.O=C(O)[C@@H]1CCCN(CCCN2C(=O)c3ccccc3Nc3ccccc32)C1 [Example 1, (R)-1-(3-(11-Oxo-10,11-dihydro-5H-dibenzo[b,e][1,4]diazepin-10-yl)-1-propyl)-3-piperidinecarboxylic acid hydrochloride] | 13%
5 | Cl.O=C(O)[C@@H]1CCCN(CCCN2Cc3ccccc3Cc3ccccc32)C1 [Example 3, (R)-1-(3-(6,11-Dihydro-5H-dibenz[b,e]azepin-5-yl)-1-propyl)-3-piperidine-carboxylic acid hydrochloride] | 36%
